Measured values published in the supplement of paper PMC11061612.

Columns and labels:
Assay in all cases: Bliss excess, mean over the matrix (fraction); higher = more synergy
[1] = test system: OAW-42 (Ovarian Carcinoma)
Outline: (§1)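 After 24 hours at 37°C and 5% CO2 in 1536-well plates, cells in DMEM/F12 or RPMI plus 10% FBS received two-drug dose matrices for 72 hours. Viability came from CellTiter-Glo 2.0 luminescence and was scaled as inhibition, anchored at 0 by vehicle wells and at 1 by blank wells. Combination Emax is taken as the second-highest inhibition in the matrix, and Bliss excess as the observed combination effect less EA + EB − EA·EB, with EA and EB the single-agent effects.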

[2] = test system: PC-3_[JPC-3] (Lung Adenocarcinoma)
Outline: as §1

[3] = test system: RERF-LC-Sq1 (Squamous Cell Lung Carcinoma)
Outline: as §1

[4] = test system: MKN45 (Gastric Carcinoma)
Outline: as §1

[5] = test system: MFE-280 (Endometrial Carcinoma)
Outline: as §1

WM793B (Melanoma) = test system: WM793B (Melanoma)
Outline: as §1

[6] = test system: NCI-H446 (Small Cell Lung Carcinoma)
Outline: as §1

[7] = test system: FADU (Head and Neck Carcinoma)
Outline: as §1

SF268 (Low Grade Glioma) = test system: SF268 (Low Grade Glioma)
Outline: as §1

[8] = test system: SHP-77 (Small Cell Lung Carcinoma)
Outline: as §1

LN-229 (Glioblastoma) = test system: LN-229 (Glioblastoma)
Outline: as §1

[9] = test system: LK-2 (Squamous Cell Lung Carcinoma)
Outline: as §1

[10] = test system: NCI-H2342 (Lung Adenocarcinoma)
Outline: as §1

IST-MES1 (Mesothelioma) = test system: IST-MES1 (Mesothelioma)
Outline: as §1

[11] = test system: SK-PN-DW (Other Solid Carcinomas)
Outline: as §1

SF539 (Glioblastoma) = test system: SF539 (Glioblastoma)
Outline: as §1

A2058 (Melanoma) = test system: A2058 (Melanoma)
Outline: as §1

[12] = test system: KE-37 (T-Lymphoblastic Leukemia)
Outline: as §1

[13] = test system: PANC-03-27 (Pancreatic Carcinoma)
Outline: as §1

[14] = test system: GP5d (Colorectal Carcinoma)
Outline: as §1

For `CC1(C)CCC(CN2CCN(c3ccc(C(=O)NS(=O)(=O)c4ccc(NCC5CCOCC5)c([N+](=O)[O-])c4)c(Oc4cnc5[nH]ccc5c4)c3)CC2)=C(c2ccc(Cl)cc2)C1` [Venetoclax] + Cn1cnc2c(F)c(Nc3ccc(Br)cc3Cl)c(C(=O)NOCCO)cc21 [Selumetinib] (first compound max 1 µM, 7x7, partner max 3 µM), the Bliss excess [1] was -0.0283, the Bliss excess [2] was -0.0715 and the Bliss excess [3] was -0.0467. For the same compound, the Bliss excess [4] was -0.0574, the Bliss excess [5] was -0.0138 and the Bliss excess (WM793B (Melanoma)) was -0.0191. It also gave a Bliss excess [6] of -0.0372, a Bliss excess [7] of 0.0212 and a Bliss excess (SF268 (Low Grade Glioma)) of -0.0355. The Bliss excess [8] was 0.105, the Bliss excess (LN-229 (Glioblastoma)) was -0.0372 and the Bliss excess [9] was -0.0073. It also gave a Bliss excess [10] of -0.0628, a Bliss excess (IST-MES1 (Mesothelioma)) of -0.0381 and a Bliss excess [11] of -0.0308. It also gave a Bliss excess (SF539 (Glioblastoma)) of 0.0003, a Bliss excess (A2058 (Melanoma)) of -0.005 and a Bliss excess [12] of -0.0013. For the same compound, the Bliss excess [13] was 0.0047 and the Bliss excess [14] was 0.01.
